Data on ten compounds can be found in ChEMBL document CHEMBL1201862, “PubChem BioAssay data set” (2004).

Test systems include 786-0; A549; ACHN; BT-549; CCRF-CEM; DU-145; HCT-15; HOP-92; MCF7; MDA-MB-435; Malme-3M; NCI-H522; NCI/ADR-RES; OVCAR-8; SK-MEL-28; SN12C; SNB-75; SW-620; T47D; COLO 205.
Holding throughout (assay): NCI-60 cell line screen, 48 h

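Where inhibition never reached the appropriate level, the endpoint shown equals the highest concentration tested. Otherwise, values were interpolated linearly from a five-concentration, 48-hour dose response in 96-well plates. GI50 = concentration required for 50% inhibition of growth.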 Calls of active or inactive are those of the source. No stated cut-off is given here; in the data, active = GI50 up to about 1.1 µM and inactive = higher. A value given as a limit tells only on which side of the number the result lay.

On to `CCOC(=O)C1CCCN1C(=O)c1ccccc1Cl` (stereo not drawn), for which the GI50 with 786-0, with A549, with ACHN, in the test on BT-549, in the test with CCRF-CEM and in the test with DU-145 was > 100 µM (inactive) each time. In addition, the GI50 in the test on HCT-15 is greater than 100 µM; with HOP-92, 75.9 µM (inactive); in the test with MCF7, > 100 µM (inactive); in the test on MDA-MB-435, > 100 µM (inactive); with Malme-3M it was > 100 µM (inactive); in the test on NCI-H522 it was > 100 µM (inactive). In addition, the GI50 with NCI/ADR-RES, with OVCAR-8, in the test on SK-MEL-28, in the test on SN12C, with SNB-75 and with SW-620 was > 100 µM (inactive) in each case. For the same compound, the GI50 with T47D was > 100 µM (inactive).

Take `c1ccc(-c2cs[s+]c2)cc1`: the GI50 is > 100 µM (inactive) in the test on 786-0; > 100 µM (inactive) in the test with A549; > 100 µM (inactive) with ACHN; > 100 µM (inactive) in the test with BT-549; 22.9 µM (inactive) in the test on CCRF-CEM; > 100 µM (inactive) with COLO 205. Also, the GI50 with DU-145 was > 100 µM (inactive); in the test with HCT-15, 40.8 µM; in the test on HOP-92, > 100 µM (inactive); in the test with MCF7, > 100 µM (inactive); in the test with MDA-MB-435, > 100 µM (inactive); in the test with Malme-3M it was > 100 µM (inactive). For the same compound, the GI50 in the test on NCI-H522 was 46.2 µM (inactive); in the test with NCI/ADR-RES, > 100 µM (inactive); in the test on OVCAR-8, > 100 µM (inactive); in the test on SK-MEL-28, > 100 µM (inactive); in the test on SN12C it was > 100 µM (inactive); in the test on SNB-75 it was > 100 µM (inactive). For the same compound, the GI50 with SW-620 is 49.5 µM (inactive); with T47D, > 100 µM (inactive).

In the case of `COc1cccc(Nc2nc(NNC(=O)Cc3ccccc3)nc(NNC(=O)c3ccncc3)n2)c1`, the GI50 was > 10 µM (inactive) with 786-0; > 10 µM (inactive) in the test with A549; > 100 µM (inactive) in the test on ACHN; > 10 µM (inactive) with BT-549; > 10 µM (inactive) with CCRF-CEM; > 10 µM (inactive) in the test with COLO 205. Further, the GI50 in the test on DU-145 was > 10 µM (inactive); in the test on HCT-15, 7.93 µM; in the test with HOP-92, > 10 µM (inactive); in the test on MCF7, > 10 µM (inactive); in the test with MDA-MB-435, 52.8 µM (inactive); with Malme-3M, > 10 µM (inactive). The GI50 with NCI-H522 is > 100 µM (inactive); in the test on NCI/ADR-RES it was > 10 µM (inactive); in the test with OVCAR-8, > 10 µM (inactive); in the test on SK-MEL-28 it was > 100 µM (inactive); in the test on SN12C, > 10 µM (inactive); in the test with SNB-75 it was 53.5 µM (inactive). Also, the GI50 in the test with SW-620 was 78.2 µM (inactive); with T47D, > 10 µM (inactive).

Regarding `N#CCc1n[nH]c2nc(SCc3ccccc3)nc(N3CCCCC3)c12`, the GI50 in the test on 786-0 was 17.3 µM (inactive); in the test with A549, 19.3 µM (inactive); in the test with ACHN, 21.2 µM (inactive); with BT-549, 18.6 µM (inactive); in the test with CCRF-CEM, 17.3 µM (inactive); in the test with COLO 205 it was 17.9 µM (inactive). The GI50 with DU-145 is 18.2 µM (inactive); with HCT-15, 32.7 µM; in the test on HOP-92, 16.6 µM (inactive); with MCF7 it was 21.9 µM (inactive); in the test on MDA-MB-435 it was 19.9 µM (inactive); in the test with Malme-3M it was 24.5 µM (inactive). In addition, the GI50 in the test with NCI-H522 is 19.3 µM (inactive); in the test on NCI/ADR-RES, 17.6 µM (inactive); with OVCAR-8 it was 38.9 µM (inactive); in the test on SK-MEL-28, 20.5 µM (inactive); in the test with SN12C, 13 µM (inactive); in the test with SNB-75 it was 18.2 µM (inactive). Moreover, the GI50 in the test with SW-620 and in the test with T47D was 19.5 µM (inactive) throughout.

As to `O=C(/C=N/O)c1c(-c2ccccc2)[nH]c(-c2ccccc2)c1-c1ccccc1`, the GI50 in the test on 786-0 is 54.1 µM (inactive); in the test with A549, 14.1 µM (inactive); in the test with ACHN, 16 µM (inactive); in the test with BT-549 it was < 0.01 µM (active); in the test with CCRF-CEM, 16.6 µM (inactive); in the test on COLO 205, 17.2 µM (inactive). In addition, the GI50 is 0.927 µM (active) in the test with DU-145; 17.9 µM in the test on HCT-15; 14 µM (inactive) with HOP-92; 15.6 µM (inactive) in the test with MCF7; 14.4 µM (inactive) with MDA-MB-435; 18.3 µM (inactive) in the test on Malme-3M. The GI50 was 13.8 µM (inactive) with NCI-H522; 6.78 µM (inactive) in the test with NCI/ADR-RES; 17.8 µM (inactive) with SK-MEL-28; 15.8 µM (inactive) in the test on SN12C; 18.3 µM (inactive) in the test with SNB-75; 19.8 µM (inactive) with SW-620. Besides, in the test on T47D, the GI50 was 17.1 µM (inactive).

For `COc1ccc(N2C(=O)/C(=C/c3ccc(N(CCC#N)CCC#N)cc3C)N=C2c2cc([N+](=O)[O-])ccc2Cl)cc1`, the GI50 with 786-0 is 4.43 µM (inactive); in the test with A549 it was 4.89 µM (inactive); in the test with ACHN it was 22.6 µM (inactive); in the test on BT-549 it was 53.2 µM (inactive); in the test on CCRF-CEM it was 3.77 µM (inactive); with COLO 205, 4.34 µM (inactive). Besides, the GI50 is 6.34 µM (inactive) in the test with DU-145; 3.84 µM with HCT-15; > 31.7 µM (inactive) in the test on HOP-92; 4.81 µM (inactive) in the test on MCF7; 1.96 µM (inactive) with MDA-MB-435; 27 µM (inactive) with Malme-3M. In addition, the GI50 in the test with NCI-H522 was 2.74 µM (inactive); in the test on NCI/ADR-RES, > 10 µM (inactive); with OVCAR-8, 5.33 µM (inactive); in the test with SK-MEL-28, 11 µM (inactive); in the test with SN12C, 6.31 µM (inactive); in the test with SNB-75, 3.3 µM (inactive). Besides, the GI50 was 4.55 µM (inactive) in the test on SW-620 and > 89.9 µM (inactive) with T47D.

Take `COC(=O)c1c(C)cccc1C1CN=NC12Cc1c(C)cccc1C2=O` (stereo not drawn): the GI50 was > 100 µM (inactive) in the test with 786-0; 82.6 µM (inactive) in the test with A549; 79.3 µM (inactive) in the test with ACHN; > 100 µM (inactive) with BT-549; > 100 µM (inactive) in the test with CCRF-CEM; 55.5 µM (inactive) in the test with COLO 205. Besides, the GI50 in the test with DU-145 was > 100 µM (inactive); in the test with HCT-15 it was 88.1 µM; with HOP-92 it was 19.9 µM (inactive); in the test with MCF7, 55.2 µM (inactive); in the test with MDA-MB-435, 39.8 µM (inactive); with Malme-3M it was 91.4 µM (inactive). For the same compound, the GI50 in the test with NCI-H522 was 24.9 µM (inactive); with NCI/ADR-RES it was 59.6 µM (inactive); in the test with OVCAR-8, 44.7 µM (inactive); in the test on SK-MEL-28, > 100 µM (inactive); in the test with SN12C it was > 100 µM (inactive); in the test on SNB-75, 64.1 µM (inactive). Besides, the figures for the GI50 with SW-620 and in the test with T47D were > 100 µM (inactive) and 37.9 µM (inactive), respectively.

With `COc1ccc(Cc2nc3cc(C(F)(F)F)ccc3n2C[C@@H]2CCCN3CCCCC23)cc1` (stereo partly drawn), the GI50 in the test on 786-0 is 5.55 µM (inactive); in the test on A549 it was 9.02 µM (inactive); with ACHN it was 6.75 µM (inactive); in the test on BT-549, 13.8 µM (inactive); with CCRF-CEM it was 11.1 µM (inactive); with COLO 205, 5.36 µM (inactive). Further, the GI50 in the test with DU-145 was 11 µM (inactive); in the test on HCT-15 it was 14.2 µM; in the test on HOP-92, 5.62 µM (inactive); in the test with MCF7, 8.34 µM (inactive); in the test on MDA-MB-435, 12.2 µM (inactive); with Malme-3M it was 3.18 µM (inactive). Moreover, the GI50 with NCI-H522 was 7 µM (inactive); in the test on NCI/ADR-RES, 14.2 µM (inactive); in the test with OVCAR-8, 15.3 µM (inactive); in the test with SK-MEL-28, 13 µM (inactive); in the test on SN12C, 7.31 µM (inactive); in the test with SNB-75 it was 27.4 µM (inactive). Also, the GI50 in the test on SW-620 is 21.3 µM (inactive); in the test on T47D, 6.04 µM (inactive).

On to `CCOS(=O)(=O)c1ccc(-c2c3nc(c(-c4ccc(S(=O)(=O)OCC)cc4)c4ccc([nH]4)c(-c4ccc(S(=O)(=O)OCC)cc4)c4nc(c(-c5ccc(S(=O)(=O)OCC)cc5)c5ccc2[nH]5)C=C4)C=C3)cc1`, for which the GI50 in the test on 786-0, in the test on A549, in the test on ACHN, with BT-549, in the test on CCRF-CEM and with COLO 205 was > 31.6 µM (inactive) throughout. The GI50 with DU-145 was > 31.6 µM (inactive); in the test on HCT-15 it was greater than 31.6 µM; in the test on HOP-92, > 100 µM (inactive); in the test with MCF7, > 31.6 µM (inactive); in the test with MDA-MB-435, > 31.6 µM (inactive); in the test with Malme-3M, 17.7 µM (inactive). For the same compound, the GI50 in the test on NCI-H522 is 10.5 µM (inactive); in the test with NCI/ADR-RES, > 31.6 µM (inactive); in the test on OVCAR-8, > 31.6 µM (inactive); with SK-MEL-28 it was > 10 µM (inactive); in the test on SN12C, > 31.6 µM (inactive); in the test with SNB-75, > 10 µM (inactive). Moreover, the GI50 in the test with SW-620 and with T47D was > 31.6 µM (inactive) in each case.

As to `CN1C(=O)c2cccc3cc([N+](=O)[O-])cc(c23)C1=O`, the GI50 in the test with 786-0, in the test with A549, in the test with ACHN, in the test on BT-549, with CCRF-CEM and with COLO 205 was > 10 µM (inactive) in each case. Further, the GI50 was > 10 µM (inactive) in the test on DU-145; greater than 10 µM in the test with HCT-15; > 10 µM (inactive) in the test on HOP-92; 4.05 µM (inactive) in the test on MCF7; > 10 µM (inactive) with MDA-MB-435; > 10 µM (inactive) in the test on Malme-3M. Besides, the GI50 with NCI-H522 was 5.65 µM (inactive); in the test with NCI/ADR-RES, > 10 µM (inactive); with OVCAR-8, > 10 µM (inactive); with SK-MEL-28 it was > 10 µM (inactive); in the test with SN12C, > 10 µM (inactive); with SNB-75, > 10 µM (inactive). Besides, the GI50 with SW-620 and with T47D was > 10 µM (inactive) throughout.
